The values that follow come from patent US20250101026A1, “Functionalized Allopurinol Derivatives for Treatment of Alzheimer’s Disease” (BOARD OF REGENTS OF THE UNIVERSITY OF NEBRASKA, priority 2022, published 2025).

Structures are written as SMILES.

The test system of one assay is SH-SY5Y cells. Briefly: Aβ-induced toxicity in SH-SY5Y cells, MTS assay. It counts as cell-based, human. Particulars: 1 μM. On the procedure: Cell Culture. The cell line SH-SY5Y was cultured in DMEM/F12 media supplemented with 10% fetal bovine serum, 1% penicillin-streptomycin and maintained as monolayer cultures in a humidified atmosphere containing 5% CO2 at 37° C.^42 All cell lines were authenticated via short tandem repeat analysis and tested for mycoplasma using the a commercial mycoplasma detection kit as per the manufacturer's instructions, showing no contamination. Where indicated, cells were also cultured in DMEM/low glucose media. All compounds were diluted to 20 mM solution in DMSO and were serially diluted in cell culture media for cell treatments to a final concentration range of 0.01 to 100 μM, maintaining the final DMSO concentration at less than 1%. Positive control compound HupA was serially diluted in a similar fashion as the synthesized compounds.
Amyloid Preparation. The peptide Aβ1-42, referred to as “Aβ”, was obtained from a commercial source. The oligomers of Aβ were prepared using an established method,^43 Aβ peptide was resuspended in 0.5 mM NaOH at a concentration of […] and stored at −80° C. For use in cell cultures, the stock solution was incubated at 37° C. for 5-7 days. Before use, the peptide was diluted to 25 μM in DMEM/low glucose media.
Cell Viability Assays. The SH-SY5Y cells were plated at a density of 50,000 cells/well in 96-well plates and allowed to adapt overnight in a humidified atmosphere containing 5% CO2 at 37° C. The cells were pretreated (24 hours) with the test compound and exchanged to a serum-free DMEM/low glucose media, prior to incubation with 25 μM of Aβ. Cell viability was measured after 48 hours using commercial MTS assay or lactate dehydrogenase (LDH) cytotoxicity assay.
Employing human neuroblastoma SH-SY5Y ‘neuron-like’ cells, known to express ABAD,^20 experimental conditions are described herein that result in reproducible loss of 65% cell viability upon treatment with 25 μM Aβ after 48-hour incubation (FIG. 4A). Compound 1 (AG18051) and its analog 14b were screened for toxic effects in the SH-SY5Y cell lines.
HupA at 10 μM concentration provided 74% protection from Aβ-induced toxicity. […] Again, synthesized compound 14b at 1 μM, afforded greater protection than HupA at 10 μM concentration.

The test system of assay [1] is 5XFAD primary cortical neurons. Nature of the assay: Mitochondrial morphology (TOM20 staining) in 5XFAD primary cortical neurons. Particulars: 10 and 50 μM, 48 hours; compared with no treatment control 5XFAD neurons. The assay is classed as cell-based, mouse. How it is done: Immunofluorescent Microscopy and Image Analysis. Isolated primary mouse cortical neurons from the 5XFAD Alzheimer's Disease mouse model were cultured for 10 days and then treated with 14b at 10 or 50 μM for 48 hours. Primary neurons growing on the coverslips were washed three times with PBS and fixed with 4% PFA. After permeabilization with 0.5% Triton™ X-100 for 15 minutes, coverslips were blocked with 10% NGS for 30 min. Coverslips were rinsed with 1% NGS in PBS and incubated with anti-TOM20 antibody at 4° C. overnight. Coverslips were then rinsed with 1% NGS, blocked in 10% NGS for 10 min, and rinsed with 1% NGS. Coverslips were incubated with species-specific AlexaFluor® 488-conjugated Abs diluted in 1% NGS for 2 h at room temperature in the dark. Coverslips were rinsed 3× with PBS. Excess liquid was removed, and slides were coverslipped using Fluoromount-G™ mounting medium. Slides were imaged using a confocal microscope with 63x/1.4NA Oil objective. The acquired images were processed for background subtraction in Zen software. Mitochondrial length was calculated from single plane images. Mitochondrial length was defined as the Feret maximum.
To obtain proof-of-concept protective effect of 14b in an ex vivo mouse model of AD we isolated primary mouse cortical neurons from the 5XFAD Alzheimer's model mouse (FIGS. 6A-6C). […]

Assay [2] relates to 5XFAD primary cortical neurons. Briefly: Respiration measurements in 5XFAD cortical neurons. It counts as cell-based, mouse. Particulars: 10 μM and 50 μM, 48 hours. How it is done: Respiration Measurements (5XFAD cortical neurons). Primary cortical neurons were plated on poly-D-lysine-coated Seahorse XF24 cell culture microplates at a density of 3×10^4 cells/well and cultured for 14 days. At DIV (day in vitro) 12, neurons were treated with indicated compound for 48 hours. On day of the experiment, cells were washed three times and pre-incubated for 1 h in Assay Media with 10 mM Glucose, 1 mM Pyruvate, and 2 mM L-Glutamine. Measurement of intact cellular respiration was performed using an analyzer and a commercial Mito Stress Test Kit. Respiration was measured under basal conditions, and in response to 1.5 μM oligomycin followed by the addition of the […] (FCCP, 1 μM) which induces maximal OCR (Oxygen Consumption Rate). Finally, respiration was stopped by adding the electron transport chain inhibitors rotenone and antimycin A (0.5 μM). Values were normalized to cellular protein levels.
To obtain proof-of-concept protective effect of 14b in an ex vivo mouse model of AD we isolated primary mouse cortical neurons from the 5XFAD Alzheimer's model mouse (FIGS. 6A-6C). 5XFAD neurons were cultured for 10 days and then treated with 14b at 10 or 50 μM for 48 hours and then stained with the mitochondrial outer membrane protein TOM20 to evaluate mitochondrial morphological changes (FIG. 6A). […]

For the compound `O=C(C(c1ccccc1)n1cnc2[nH]ncc2c1=S)N1CCC(O)CC1` (centres unmarked) [Compound 14b, 1-(4-hydroxypiperidin-1-yl)-2-phenyl-2-(4-thioxo-1,4-dihydro-5H-pyrazolo[3,4-d]pyrimidin-5-yl)ethan-1-one], in the assay on SH-SY5Y cells, the “rescue of Aβ-induced reduction of cell viability (MTS assay)” value was “significantly rescued”. Besides, the “protection of cell viability (MTS assay)” value in the assay with SH-SY5Y cells (pretreated 24 hrs, then 25 μM Aβ 48 hrs) was 82%. In addition, in assay [1], the mitochondrial aspect ratio result is “significantly rescued” and the mitochondrial length entry is listed as “significantly rescued”. Further, the “mitochondrial respiration (oxygen consumption rate) rescue” value in assay [2] is “trend to rescue”.
